Assay results reported in PubChem BioAssay AID1963437 (Molecular Pharmacology Branch, DTP, NCI, 2024).

Test system: OVCAR-8 complex spheroid, growth inhibition
Assay: Anticancer human tumor OVCAR-8 cell line growth inhibition [Asc];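 further: spheroids exposed to agents for 7 days before readout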;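 on viability, T/C: percent viability relative to DMSO vehicle wells taken as 100%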
Settings: for IC50: curve of first compound; for viability, T/C: stronger effect = lower value
Method in brief: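 Spheroid model: tumor line + HUVEC + hMSC. Single agents and combinations; top conc. at/near clinical Cmax (10 microM if undetermined), half-log dilutions. DMSO stocks at 800-fold test concentration.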

[1] = second compound 0.00949 µM, first compound 0.00316 µM
[2] = second compound 0.00949 µM, first compound 0.01 µM
[3] = second compound 0.00949 µM, first compound 0.0316 µM
[4] = second compound 0.00949 µM, first compound 0.1 µM
[5] = second compound 0.00949 µM, first compound 0.316 µM
[6] = second compound 0.00949 µM, first compound 1 µM
[7] = second compound 0.03 µM, first compound 0.00316 µM
[8] = second compound 0.03 µM, first compound 0.01 µM
[9] = second compound 0.03 µM, first compound 0.0316 µM
[10] = second compound 0.03 µM, first compound 0.1 µM
[11] = second compound 0.03 µM, first compound 0.316 µM
[12] = second compound 0.03 µM, first compound 1 µM
[13] = second compound 0.0949 µM, first compound 0.00316 µM
[14] = second compound 0.0949 µM, first compound 0.01 µM
[15] = second compound 0.0949 µM, first compound 0.0316 µM
[16] = second compound 0.0949 µM, first compound 0.1 µM
[17] = second compound 0.0949 µM, first compound 0.316 µM
[18] = second compound 0.0949 µM, first compound 1 µM
[19] = second compound 0.3 µM, first compound 0.00316 µM
[20] = second compound 0.3 µM, first compound 0.01 µM
[21] = second compound 0.3 µM, first compound 0.0316 µM
[22] = second compound 0.3 µM, first compound 0.1 µM
[23] = second compound 0.3 µM, first compound 0.316 µM
[24] = second compound 0.3 µM, first compound 1 µM
[25] = second compound 0.949 µM, first compound 0.00316 µM
[26] = second compound 0.949 µM, first compound 0.01 µM
[27] = second compound 0.949 µM, first compound 0.0316 µM
[28] = second compound 0.949 µM, first compound 0.1 µM
[29] = second compound 0.949 µM, first compound 0.316 µM
[30] = second compound 0.949 µM, first compound 1 µM
[31] = second compound 3 µM, first compound 0.00316 µM
[32] = second compound 3 µM, first compound 0.01 µM
[33] = second compound 3 µM, first compound 0.0316 µM
[34] = second compound 3 µM, first compound 0.1 µM
[35] = second compound 3 µM, first compound 0.316 µM
[36] = second compound 3 µM, first compound 1 µM

For `COc1c(OCCCN2CCOCC2)ccc2c3n(c(=NC(=O)c4cnc(N)nc4)nc12)CCN3` + CCN1C(C(=O)NC23CCC(C(=O)O)(CC2)CC3)C(c2cccc(Cl)c2F)C2(C(=O)Nc3cc(Cl)ccc32)C12CCCCC2, the IC50 (second compound 0.00949 µM) was greater than 1000 nM, the IC50 (second compound 0.03 µM) was greater than 1000 nM and the IC50 (second compound 0.0949 µM) was greater than 1000 nM. For the same molecule, the IC50 (second compound 0.3 µM) was greater than 1000 nM, the IC50 (second compound 0.949 µM) was greater than 1000 nM and the IC50 (second compound 3 µM) was greater than 1000 nM. It also gave a viability, T/C [1] of 94.7%, a viability, T/C [2] of 92.2% and a viability, T/C [3] of 113%. For the same molecule, the viability, T/C [4] was 170%, the viability, T/C [5] was 140% and the viability, T/C [6] was 97.1%. For the same molecule, the viability, T/C [7] was 81.5%, the viability, T/C [8] was 101% and the viability, T/C [9] was 121%. It also gave a viability, T/C [10] of 134%, a viability, T/C [11] of 133% and a viability, T/C [12] of 91.2%. The viability, T/C [13] was 104%, the viability, T/C [14] was 99% and the viability, T/C [15] was 117%. It also gave a viability, T/C [16] of 165%, a viability, T/C [17] of 154% and a viability, T/C [18] of 92.4%. The viability, T/C [19] was 103%, the viability, T/C [20] was 103% and the viability, T/C [21] was 108%. The viability, T/C [22] was 153%, the viability, T/C [23] was 133% and the viability, T/C [24] was 80%. It also gave a viability, T/C [25] of 93.9%, a viability, T/C [26] of 89.8% and a viability, T/C [27] of 146%. It also gave a viability, T/C [28] of 172%, a viability, T/C [29] of 144% and a viability, T/C [30] of 80.9%. For the same molecule, the viability, T/C [31] was 111%, the viability, T/C [32] was 115% and the viability, T/C [33] was 133%. The viability, T/C [34] was 153%, the viability, T/C [35] was 126% and the viability, T/C [36] was 90.2%.

`O=C(c1ccc(F)c(F)c1Nc1ccc(I)cc1F)N1CC(O)([C@@H]2CCCCN2)C1` + CCN1C(C(=O)NC23CCC(C(=O)O)(CC2)CC3)C(c2cccc(Cl)c2F)C2(C(=O)Nc3cc(Cl)ccc32)C12CCCCC2 gave an IC50 (second compound 0.00949 µM) greater than 1000 nM, an IC50 (second compound 0.03 µM) greater than 1000 nM and an IC50 (second compound 0.0949 µM) greater than 1000 nM. For the same molecule, the IC50 (second compound 0.3 µM) was greater than 1000 nM, the IC50 (second compound 0.949 µM) was greater than 1000 nM and the IC50 (second compound 3 µM) was greater than 1000 nM. The viability, T/C [1] was 102%, the viability, T/C [2] was 102% and the viability, T/C [3] was 119%. It also gave a viability, T/C [4] of 153%, a viability, T/C [5] of 230% and a viability, T/C [6] of 104%. For the same molecule, the viability, T/C [7] was 106%, the viability, T/C [8] was 108% and the viability, T/C [9] was 138%. The viability, T/C [10] was 161%, the viability, T/C [11] was 241% and the viability, T/C [12] was 101%. For the same molecule, the viability, T/C [13] was 101%, the viability, T/C [14] was 97% and the viability, T/C [15] was 122%. The viability, T/C [16] was 168%, the viability, T/C [17] was 208% and the viability, T/C [18] was 113%. It also gave a viability, T/C [19] of 105%, a viability, T/C [20] of 103% and a viability, T/C [21] of 159%. It also gave a viability, T/C [22] of 173%, a viability, T/C [23] of 238% and a viability, T/C [24] of 137%. For the same molecule, the viability, T/C [25] was 97.2%, the viability, T/C [26] was 102% and the viability, T/C [27] was 163%. It also gave a viability, T/C [28] of 175%, a viability, T/C [29] of 248% and a viability, T/C [30] of 139%. For the same molecule, the viability, T/C [31] was 151%, the viability, T/C [32] was 141% and the viability, T/C [33] was 183%. The viability, T/C [34] was 217%, the viability, T/C [35] was 260% and the viability, T/C [36] was 161%.

`CCN1CCN(Cc2ccc(Nc3ncc(F)c(-c4cc(F)c5nc(C)n(C(C)C)c5c4)n3)nc2)CC1` + CCN1C(C(=O)NC23CCC(C(=O)O)(CC2)CC3)C(c2cccc(Cl)c2F)C2(C(=O)Nc3cc(Cl)ccc32)C12CCCCC2 gave an IC50 (second compound 0.00949 µM) greater than 1000 nM, an IC50 (second compound 0.03 µM) greater than 1000 nM and an IC50 (second compound 0.0949 µM) greater than 1000 nM. For the same molecule, the IC50 (second compound 0.3 µM) was greater than 1000 nM, the IC50 (second compound 0.949 µM) was greater than 1000 nM and the IC50 (second compound 3 µM) was greater than 1000 nM. For the same molecule, the viability, T/C [1] was 85.2%, the viability, T/C [2] was 89.5% and the viability, T/C [3] was 80.1%. The viability, T/C [4] was 100%, the viability, T/C [5] was 90.2% and the viability, T/C [6] was 107%. For the same molecule, the viability, T/C [7] was 98.1%, the viability, T/C [8] was 84.4% and the viability, T/C [9] was 102%. The viability, T/C [10] was 89.4%, the viability, T/C [11] was 97.5% and the viability, T/C [12] was 117%. For the same molecule, the viability, T/C [13] was 79.9%, the viability, T/C [14] was 92.2% and the viability, T/C [15] was 89.8%. The viability, T/C [16] was 98.6%, the viability, T/C [17] was 95.6% and the viability, T/C [18] was 126%. It also gave a viability, T/C [19] of 89.7%, a viability, T/C [20] of 82.2% and a viability, T/C [21] of 93.1%. The viability, T/C [22] was 93.7%, the viability, T/C [23] was 114% and the viability, T/C [24] was 121%. For the same molecule, the viability, T/C [25] was 97.9%, the viability, T/C [26] was 86.6% and the viability, T/C [27] was 87.5%. It also gave a viability, T/C [28] of 111%, a viability, T/C [29] of 90.6% and a viability, T/C [30] of 126%. For the same molecule, the viability, T/C [31] was 98.5%, the viability, T/C [32] was 112% and the viability, T/C [33] was 117%. For the same molecule, the viability, T/C [34] was 118%, the viability, T/C [35] was 123% and the viability, T/C [36] was 119%.

In the case of `CNC(C)C(=O)NC1CN(S(=O)(=O)c2cccc(S(=O)(=O)N3CCC4CCC(C(=O)NC(c5ccccc5)c5ccccc5)N4C(=O)C(NC(=O)C(C)NC)C3)c2)CCC2CCC(C(=O)NC(c3ccccc3)c3ccccc3)N2C1=O` (stereo not drawn) + CCN1C(C(=O)NC23CCC(C(=O)O)(CC2)CC3)C(c2cccc(Cl)c2F)C2(C(=O)Nc3cc(Cl)ccc32)C12CCCCC2, the IC50 (second compound 0.00949 µM) is reported as greater than 1000 nM, the IC50 (second compound 0.03 µM) is reported as greater than 1000 nM and the IC50 (second compound 0.0949 µM) is reported as greater than 1000 nM. For the same molecule, the IC50 (second compound 0.3 µM) was greater than 1000 nM, the IC50 (second compound 0.949 µM) was greater than 1000 nM and the IC50 (second compound 3 µM) was greater than 1000 nM. The viability, T/C [1] was 100%, the viability, T/C [2] was 83.8% and the viability, T/C [3] was 91.8%. It also gave a viability, T/C [4] of 76.4%, a viability, T/C [5] of 75.4% and a viability, T/C [6] of 71.3%. The viability, T/C [7] was 107%, the viability, T/C [8] was 99.3% and the viability, T/C [9] was 94%. The viability, T/C [10] was 88.8%, the viability, T/C [11] was 75% and the viability, T/C [12] was 83.3%. The viability, T/C [13] was 94.7%, the viability, T/C [14] was 98.1% and the viability, T/C [15] was 90.9%. For the same molecule, the viability, T/C [16] was 79%, the viability, T/C [17] was 74.4% and the viability, T/C [18] was 63.6%. The viability, T/C [19] was 112%, the viability, T/C [20] was 101% and the viability, T/C [21] was 86.7%. It also gave a viability, T/C [22] of 65.9%, a viability, T/C [23] of 68.6% and a viability, T/C [24] of 70.1%. The viability, T/C [25] was 91.7%, the viability, T/C [26] was 89.1% and the viability, T/C [27] was 99%. It also gave a viability, T/C [28] of 76.7%, a viability, T/C [29] of 64.3% and a viability, T/C [30] of 66.8%. For the same molecule, the viability, T/C [31] was 118%, the viability, T/C [32] was 102% and the viability, T/C [33] was 115%. It also gave a viability, T/C [34] of 88%, a viability, T/C [35] of 84.5% and a viability, T/C [36] of 88%.
